Experimental data published in the supplement of paper PMC4954754.
“And” between values parts separate entries of the source, which are not always exact repeats. Equal entries are not always repeated. ± gives the uncertainty stated by the source.

Legend:
Details in all cases: 18 h
HEK293T-Rex ERSE-FLuc [1] = experiment: EC50 for ERSE-FLuc reporter activation
Procedure: (§1)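 Dose-response of hit compounds in HEK293T-Rex cells stably expressing ERSE-FLuc or XBP1-RLuc reporters, 18 hr treatment, 1536-well; luminescence normalised to 500 nM thapsigargin (100%) and DMSO (0%), fitted to give EC50 (M) and maximal activation; '>' marks EC50 above the top tested dose (~17 µM).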

HEK293T-Rex ERSE-FLuc [2] = experiment: maximal ERSE-FLuc activation from dose-response fit, relative to thapsigargin (% of thapsigargin); higher = stronger activation
Procedure: as §1

HEK293T-Rex XBP1-RLuc [3] = experiment: EC50 for XBP1-RLuc reporter activation
Procedure: as §1

HEK293T-Rex XBP1-RLuc [4] = experiment: maximal XBP1-RLuc activation from dose-response fit, relative to thapsigargin (% of thapsigargin); higher = stronger activation
Procedure: as §1

Structure (SMILES)	EC50 for ERSE-FLuc reporter activation (HEK293T-Rex ERSE-FLuc [1])	maximal ERSE-FLuc activation (HEK293T-Rex ERSE-FLuc [2])	EC50 for XBP1-RLuc reporter activation (HEK293T-Rex XBP1-RLuc [3])	maximal XBP1-RLuc activation (HEK293T-Rex XBP1-RLuc [4])
COc1ccc(Nc2nccn3c(-c4ccsc4)cnc23)cn1	> 16.9 µM	23.1 ± 0.89	> 16.9 µM	8.52 ± 2.1
COc1ccccc1-c1cc(C(=O)Nc2cc(C)ccc2O)no1	> 16.9 µM	25.7 ± 7.9	> 16.9 µM	18 ± 2.5
CCCCCCOc1ccc(/C(C)=N/NC2=NCCN2)cc1[N+](=O)[O-]	> 16.9 µM	34.7 ± 1.6	> 16.9 µM	16.3 ± 1.6
CCOc1ccc2nc(NC(=O)c3ccn(C)n3)sc2c1	> 14.4 µM	10.9 ± 2.4	> 14.4 µM	4.53 ± 2.8
O=[N+]([O-])c1ccc2nc(/C=C/c3ccccc3)[nH]c2c1	> 16.9 µM	23.7 ± 12	> 16.9 µM	3.13 ± 2.4
COc1cccc(-c2cc(C(=O)Nc3cc(C)ccc3O)on2)c1	8.72 µM	87 ± 20	> 16.9 µM	25.6 ± 5.2
Cc1nn(-c2ccc(F)cc2)c2ncc(C(=O)NCc3ccco3)c(Cl)c12	15.3 µM	63.1 ± 4.8	12.6 µM	151 ± 6.8
O=C(/C=C/c1ccco1)Nc1ccccn1	> 16.9 µM	18.7 ± 4.8	> 16.9 µM	1.83 ± 1.4
Cc1cccc2c1[nH]c1nc(N/N=C\c3c[nH]c4ccccc34)nnc12	> 16.9 µM	41.7 ± 12	> 16.9 µM	32.4 ± 5.6
COc1ccc(/C=N/c2sc3c(c2C(N)=O)CCCC3)cc1	> 16.9 µM	20.9 ± 2	> 16.9 µM	4.94 ± 3.8
O=C(N/N=C\C(Cl)=C\c1ccccc1)c1n[nH]c2c1CCCC2	> 16.9 µM	19.7 ± 5.1	> 16.9 µM	3.51 ± 3.7
O=C(N/N=C/c1cccc(Cl)c1Cl)c1ccccc1O	> 16.9 µM	6.19 ± 0.61	> 16.9 µM	2.04 ± 0.65
COc1ccc(NC(=O)/C(Cl)=C\c2ccccc2)cc1	> 16.9 µM	22.2 ± 2.3	> 16.9 µM	4.41 ± 5
Cc1ccc(C)c(/C=N/Nc2nncc3ccccc23)c1	> 17.1 µM	26.4 ± 5.4	> 17.1 µM	8.33 ± 1.1
Cc1ccc(O)c(NC(=O)c2cc(-c3cccs3)on2)c1	2.78 µM	126 ± 5.9	> 16.9 µM	32.4 ± 6.1
CCOC(=O)c1sc(NC(=O)c2cccc3ccccc23)nc1C	> 16.9 µM	25.3 ± 5.7	> 16.9 µM	3.29 ± 3.4
COc1ccc2c(Cl)c(C(=O)Nc3ccccc3C(N)=O)sc2c1	> 16.9 µM	21.3 ± 1.3	> 16.9 µM	6.81 ± 1.3
CC1(C)Cc2ccccc2/C(=C/C(=O)C(=O)N/N=C/c2ccc(O)c(O)c2)N1	> 16.9 µM	39 ± 3.2	6.13 µM	54.9 ± 3.4
O=C(/C=C/c1ccco1)Nc1ccc(Br)cc1Cl	> 16.9 µM	23.5 ± 2.5	> 16.9 µM	4.5 ± 6.9
NC(=O)c1c(NC(=O)c2cccc3ccccc23)sc2c1CCC2	> 16.9 µM	21.9 ± 5.8	> 16.9 µM	23.1 ± 6.4
Cc1ccc(O)c(NC(=O)CCc2ccccc2)c1	4.16 µM	107 ± 12	> 16.9 µM	26.1 ± 0.67
CCCCNc1ncnc2c1cnn2-c1ccc(Cl)cc1	> 19.5 µM	25.4 ± 3	> 19.5 µM	2.05 ± 1.1

Structure (SMILES)	EC50 for ERSE-FLuc reporter activation (HEK293T-Rex ERSE-FLuc [1])	maximal ERSE-FLuc activation (HEK293T-Rex ERSE-FLuc [2])	EC50 for XBP1-RLuc reporter activation (HEK293T-Rex XBP1-RLuc [3])	maximal XBP1-RLuc activation (HEK293T-Rex XBP1-RLuc [4])
Cc1ccccc1NC(=O)c1sc2nc(N)c(C#N)c(-c3ccc(C(C)C)cc3)c2c1N	4.01 µM	169 ± 22	4.47 µM	122 ± 17
Cc1ccc(O)c(NC(=O)CSc2ccccc2)c1	3.9 µM	83.1 ± 25	> 16.9 µM	21.2 ± 3.5
Cc1ccc2c(N)c(C(=O)c3ccc4c(c3)OCO4)sc2n1	> 16.9 µM	25.1 ± 2.7	> 16.9 µM	11.4 ± 3.8
Nc1ccc(-c2nc3cc(N)c(Cl)cc3[nH]2)cc1	> 14.7 µM	29.6 ± 7.5	> 14.7 µM	17.6 ± 0.39
C/C=C(/C)C(=O)O[C@H]1C(C)=C2[C@H]([C@@H]1OC(=O)CCCCCCC)[C@@](C)(OC(C)=O)C[C@H](OC(=O)CCC)[C@@]1(O)[C@H]2OC(=O)[C@@]1(C)O	0.07 µM and 0.0669 µM	100 and 87.8	0.11 µM and 0.146 µM	127 and 103
O=C(N/N=C/c1ccc(Cl)cc1)c1n[nH]c2c1CCCC2	> 16.9 µM	21.7 ± 1.7	> 16.9 µM	6.88 ± 3.1
CCCCCCc1ccc(-c2ncc(N)cn2)cc1	5.65 µM	76.7 ± 9.1	> 16.9 µM	44.3 ± 1.5
CCOc1cc(/C=C2/NC(=O)N(Cc3ccc(F)cc3)C2=O)ccc1O	> 16.9 µM	36.3 ± 4.1	11.9 µM	56.8 ± 0.68
Cc1ccc2nc(/C(C#N)=C/c3ccc(O)c(O)c3)[nH]c2c1	> 16.9 µM	23.4 ± 2.9	> 16.9 µM	19.7 ± 5.9
Cc1ccc(O)c(N/C=C/C(=O)c2ccc(F)cc2)c1	3.31 µM	303 ± 13	11.9 µM	84.1 ± 19
O=C(Nc1ccccc1O)c1ccc(NS(=O)(=O)c2cccc3cccnc23)cc1	10 µM	85.2 ± 7.5	> 16.9 µM	21.8 ± 6.3
CS(=O)(=O)c1ncc(Cl)c(C(=O)C(C#N)c2nc3ccccc3s2)n1 (configuration not stated)	2.49 µM	73.2 ± 8.2	3.99 µM	266 ± 8.4
COc1cn(-c2ccc(F)cc2)nc1C(=O)Nc1ccccc1SC	6.64 µM	80.8 ± 17	> 16.9 µM	40.2 ± 0.22
O=C1/C(=C/c2ccc(O)c(O)c2)Oc2cc(O)ccc21	> 16.9 µM	46.2 ± 4.5	> 16.9 µM	24.1 ± 2.3
O=c1[nH]c(COc2ccccc2)nc2sc3c(c12)CCCC3	> 16.3 µM	23.3 ± 2.4	> 16.3 µM	6.01 ± 1.1
Cc1ccc(O)c(NC(=O)c2cc(CC(C)C)on2)c1	3.94 µM	89.2 ± 8	> 16.9 µM	37.2 ± 9.3
N#C/C(=C/c1ccc(O)c(O)c1)c1nc2ccccc2[nH]1	> 16.9 µM	29 ± 5.2	> 16.9 µM	20.7 ± 5.2
C=CCNC(=O)c1sc2nc3cc(C)c(C)cc3cc2c1N	> 16.9 µM	8.68 ± 2	> 16.9 µM	2.32 ± 1.2
Oc1ccc(-c2csc(-c3ccccc3)n2)cc1O	5.39 µM	65.2 ± 8.8	11.3 µM	65.9 ± 7.2
Nc1nc(Nc2ccc(Cl)c(Cl)c2)nc2ccccc12	7.93 µM	138 ± 11	12.3 µM	61.9 ± 4
COc1cccc(C(=O)Nc2sc3c(c2C#N)CC(C)CC3)c1 (configuration not stated)	> 16.6 µM	23.5 ± 8	> 16.6 µM	2.09 ± 1.1
